Key:
[1] = tested on: Mouse Platelet; assay: Mouse Platelet Increasing Action (platelet count, electrical impedance method); assay type: in vivo, C57BL/6 mice; details: every 24 hr
Protocol: The measurement of platelet increasing activity can be implemented by the method described in Ishibashi, T. et al, Blood, 74(4):1241-1244, 1989 or modifications thereof. For example, an animal for platelet measurement such as mouse (e.g. C57BL/6 mouse), rat, dog or monkey is administered intraperitoneally with a test drug as dissolved in ethanolic physiological saline or dimethyl sulfoxide (hereunder sometimes referred to as DMSO) at a suitable concentration. The frequency of administration is usually once or twice a day for 5-10 continuous days; a blood sample is taken from the orbital venous plexus several hours after the final administration and the platelet count is determined. Administration may be performed by any methods including oral, intravenous, intramuscular and subcutaneous routes. The interval of administrations, their frequency and the number of days on which the administration is made are also variable with the drug under test. Platelet count can be determined by an electrical impedance method using a multi-channel automatic platelet counter (e.g., COULTER COUNTER Model JT of Coulter Corporation).
C57BL/6 mice (male, 7-week old) were administered intraperitoneally with the following compounds of the invention in 1% DMSO physiological saline or with 1% DMSO physiological saline alone (control) at 24-hr intervals for 5, 7 or 10 continuous days. Blood samples were collected 72-hr after the final administration in the case of 5-day administration, and 4-hr after the final administration in the case of 7 or 10-day administration, and the platelet count was determined by an electrical impedance method.

[2] = tested on: C57BL/6 mice; assay: Toxicity Test (intravenous, deaths); assay type: in vivo; details: 5 mg/kg intravenous
[3] = 0.03 mg/kg i.p., 5 days, blood 72 hr after final administration
[4] = 0.1 mg/kg i.p., 5 days, blood 72 hr after final administration
[5] = 1.0 mg/kg i.p., 5 days, blood 72 hr after final administration

SMILES | Platelet count (Mean ± S.E.) ([1]; 0.03 mg/kg i.p., 7 days, blood 4 hr after final administration, control 1070 ± 152) | Platelet count (Mean ± S.E.) ([1]; 0.1 mg/kg i.p., 7 days, blood 4 hr after final administration, control 1070 ± 152) | Platelet count (Mean ± S.E.) ([1]; 0.1 mg/kg i.p., 10 days, blood 4 hr after final administration, control 985 ± 130) | Platelet count (Mean ± S.E.) ([1]; 1.0 mg/kg i.p., 7 days, blood 4 hr after final administration, control 1070 ± 152) | Platelet count (Mean ± S.E.) ([1]; 1.0 mg/kg i.p., 10 days, blood 4 hr after final administration, control 985 ± 130) | cases of death [2] | Platelet count (Mean ± S.E.) [1, 3] | Platelet count (Mean ± S.E.) [1, 4] | Platelet count (Mean ± S.E.) [1, 5]
CCC1C=CC(=O)OC1/C=C/C(O)(CCN(C)C)C(CC(O)/C=C\C=C/C1CCCC(O)C1)OP(=O)(O)O (centres unmarked) [Example 3, 6-[3,6-Dihydroxy-3-(2-dimethylaminoethyl)-10-(3-hydroxycyclohexyl)-4-(phosphonoxy)-1,7,9-decatrienyl]-5,6-dihydro-5-ethyl-2H-pyran-2-one] | 1417 ± 159 × 10^3 /μl | 1486 ± 314 × 10^3 /μl | 1280 ± 260 × 10^3 /μl | 1532 ± 137 × 10^3 /μl | 1356 ± 156 × 10^3 /μl | no cases of death | – | – | –
CCC1C=CC(=O)OC1/C=C/C(O)(CCN(CC)CC)C(CC(O)/C=C\C=C/C1CCCC(O)C1)OP(=O)(O)O (centres unmarked) [Example 7, 6-[3-(2-Diethylaminoethyl)-3,6-dihydroxy-10-(3-hydroxycyclohexyl)-4-(phosphonoxy)-1,7,9-decatrienyl]-5,6-dihydro-5-ethyl-2H-pyran-2-one] | – | – | – | – | – | – | 1373 ± 76 × 10^3 /μl | 1686 ± 226 × 10^3 /μl | 1408 ± 427 × 10^3 /μl
CCC1C=CC(=O)OC1/C=C/C(O)(CCNC(C)C)C(CC(O)/C=C\C=C/C1CCCC(O)C1)OP(=O)(O)O (centres unmarked) [Example 9, 6-[3,6-Dihydroxy-10-(3-hydroxycyclohexyl)-3-(2-isopropylaminoethyl)-4-(phosphonoxy)-1,7,9-decatrienyl]-5,6-dihydro-5-ethyl-2H-pyran-2-one] | – | – | – | – | – | – | 1433 ± 125 × 10^3 /μl | 1818 ± 291 × 10^3 /μl | 1465 ± 244 × 10^3 /μl
CCCCCNCCC(O)(/C=C/C1OC(=O)C=CC1CC)C(CC(O)/C=C\C=C/C1CCCC(O)C1)OP(=O)(O)O (centres unmarked) [Example 12, 6-[3,6-Dihydroxy-10-(3-hydroxycyclohexyl)-3-(2-pentylaminoethyl)-4-(phosphonoxy)-1,7,9-decatrienyl]-5,6-dihydro-5-ethyl-2H-pyran-2-one] | – | – | – | – | – | – | 1263 ± 99 × 10^3 /μl | 1623 ± 192 × 10^3 /μl | 1338 ± 236 × 10^3 /μl
CCC1C=CC(=O)OC1/C=C/C(O)(CCNC1CCCC1)C(CC(O)/C=C\C=C/C1CCCC(O)C1)OP(=O)(O)O (centres unmarked) [Example 13, 6-[3-(2-Cyclopentylaminoethyl)-3,6-dihydroxy-10-(3-hydroxycyclohexyl)-4-(phosphonoxy)-1,7,9-decatrienyl]-5,6-dihydro-5-ethyl-2H-pyran-2-one] | – | – | – | – | – | – | 1490 ± 108 × 10^3 /μl | 1765 ± 291 × 10^3 /μl | 1313 ± 293 × 10^3 /μl
CCC1C=CC(=O)OC1/C=C/C(O)(CCN(CCO)CCO)C(CC(O)/C=C\C=C/C1CCCC(O)C1)OP(=O)(O)O (centres unmarked) [Example 20, 6-[3-(2-Diethanolaminoethyl)-3,6-dihydroxy-10-(3-hydroxycyclohexyl)-4-(phosphonoxy)-1,7,9-decatrienyl]-5,6-dihydro-5-ethyl-2H-pyran-2-one] | – | – | – | – | – | – | 1154 ± 138 × 10^3 /μl | 1325 ± 104 × 10^3 /μl | 1498 ± 192 × 10^3 /μl
CCC1C=CC(=O)OC1/C=C/C(O)(CC[N+](C)(C)C)C(CC(O)/C=C\C=C/C1CCCC(O)C1)OP(=O)(O)O (centres unmarked) [Example 23, 6-[3,6-Dihydroxy-10-(3-hydroxycyclohexyl)-4-(phosphonoxy)-3-(2-trimethylammoniumethyl)-1,7,9-decatrienyl]-5,6-dihydro-5-ethyl-2H-pyran-2-one] | – | – | – | – | – | – | – | 1545 ± 294 × 10^3 /μl | 1513 ± 425 × 10^3 /μl
C=CCN(CC=C)CCC(O)(/C=C/C1OC(=O)C=CC1CC)C(CC(O)/C=C\C=C/C1CCCC(O)C1)OP(=O)(O)O (centres unmarked) [Example 25, 6-[3-(2-Diallylaminoethyl)-3,6-dihydroxy-10-(3-hydroxycyclohexyl)-4-(phosphonoxy)-1,7,9-decatrienyl]-5,6-dihydro-5-ethyl-2H-pyran-2-one] | – | – | – | – | – | – | 1074 ± 182 × 10^3 /μl | 1506 ± 209 × 10^3 /μl | 1133 ± 170 × 10^3 /μl

— US6040335A, “Therapeutics for thrombocytopenia” (Suntory Limited, priority 1995, dated 2000)
